This experiment deals with T1, récepteur du PAF (Oryctolagus cuniculus, UniProt G1TEI7).
T1 construct: préparation membranaire de plaquettes de lapin; from tissue; host or cells: rabbit blood platelets, lysed by freeze/thaw, membrane pellet
The experiment in a line: Competitive binding of [³H]PAF to rabbit platelet membrane preparations (radioreceptor assay, vacuum filtration). Set-up: species or system lapin. Here is the method:
- 1 Aliquot de préparation membranaire de plaquettes de lapin (A) - 1 Aliquot de préparation de récepteur du PAF conforme à l'invention (B), - PAF marqué au Tritium, activité spécifique 56 Ci/mmole (DU PONT DE NEMOURS (Boston MA, USA).) - PAF non marqué (BACHEM, Budendorf, Suisse).
Des aliquots de préparations membranaires de plaquettes de lapin (∼100 µg) sont incubés pour un volume final de 200 µl de solution contenant 1 nM de /³H/PAF (15300 cpm) et soit une quantité de PAF non marqué connue (gamme de référence), soit un aliquot de dilution de l'extrait à doser. […]
Les filtres sont placés dans des fioles de comptage avec 4 ml de liquide scintillant (Atomlight NEN). La radioactivité est quantifiée sur compteur à scintillation LKB Rack beta 1214.
La différence entre la quantité de [³H]PAF lié aux membranes en absence et en présence d'un excès de PAF non marqué (1000 x [³H] PAF) est considérée comme liaison spé-cifique maximale (B˙). […]
4.2. […] Le pourcentage de [³H ]PAF lié spécifiquement aux préparations en présence de ces différentes concentrations est déterminé par rapport à la quantité de [³H ]PAF lié spécifiquement en absence de PAF standard non marqué (B/Bo : B : cpm de [³H ]PAF lié aux membranes en pré-sence de PAF standard (liaison non spécifique déduite). Bo : cpm de [³H ]PAF lié aux membranes en absence de PAF standard (liaison non spécifique déduite). […]

Two molecules from patent publication EP0345100A1, “Preparation of PAF receptors and method of quantity determination of PAF” (INSTITUT PASTEUR, priority 1988, dated 1989) can be followed below.

T1 sequence (G1TEI7 1-342): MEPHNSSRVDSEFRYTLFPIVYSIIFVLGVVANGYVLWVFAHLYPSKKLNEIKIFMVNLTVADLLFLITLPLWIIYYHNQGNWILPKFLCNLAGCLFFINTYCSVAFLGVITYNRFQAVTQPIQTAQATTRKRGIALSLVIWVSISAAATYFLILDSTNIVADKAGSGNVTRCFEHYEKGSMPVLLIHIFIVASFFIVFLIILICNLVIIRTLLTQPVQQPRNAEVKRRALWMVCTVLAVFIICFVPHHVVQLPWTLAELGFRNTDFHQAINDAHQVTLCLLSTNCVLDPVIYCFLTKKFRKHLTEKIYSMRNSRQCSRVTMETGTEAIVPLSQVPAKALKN

In the case of “1-0-alkyl-2-acétyl-sn-glycérol-3-phosphorylcholine [PAF standard]”, the “ED₅₀ (dose de PAF standard nécessaire pour inhiber 50 % de la liaison spécifique)” value (1 nM [³H]PAF, + 4° C, 1 heure 30, four experiments taken at random) is listed as 0,63 + 0,15 ng/tube.

On to `CCCCCCCCCCCCCCCCOC[C@@H](O)COP(=O)([O-])OCC[N+](C)(C)C` [lyso-PAF], for which, under “dose maximale testée : 10⁻⁶M, Figure 2 (B/Bo)”, the “reconnaissance par le site de liaison utilisé pour le dosage” value is on record as “ne sont pas reconnus”.
